Assay results as given in PMC5025780, “Copper(II) ions affect the gating dynamics of the 20S proteasome: a molecular and in cell study” (Scientific Reports, 2016).
Where two headings read alike, the source gives them in different places.

Columns and labels:
[1] = target: T1, human 20S proteasome (hCP), T-L activity; assay: T-L peptidase activity of isolated hCP (fluorogenic substrate); format: biochemical
T1 construct: purchased Boston Biochem (Cambridge, MA, USA)
Text: (§1) Purified human 20S proteasome (hCP) and the fluorogenic substrates Suc-LLVY-AMC, Z-Leu-Leu-Glu-AMC, and Ac-Arg-Leu-Arg-AMC used to assay the ChT-L, T-L, and C-L activity, were from Boston Biochem (Cambridge, MA, USA). Bathocuproinedisulfonic acid disodium salt (BCS), dithiothreitol (DTT), N-Acetyl-L-Cysteine (NAC), Sodium dodecylsulphate (SDS) as well as CuCl2 and Zn(NO3)2 were from Sigma-Aldrich (St. Louis, MO). Proteasome inhibitors Epoxomicin were obtained from Enzo Life Science. Wild type 20S proteasome isolated from Saccharomices Cerevisiae (yCP) and a mutant (α3ΔN) where nine residues of the N-terminal tail of the α3 subunit are deleted to provide a permanently open-gate conformations were isolated as described elsewhere.
(§2) Peptidase activities of hCP (2 nM) were assayed on in 50 μL Tris 25 mM pH 7.6, at 37 °C with 100 μM of the fluorogenic substrate. hCP was incubated with Cu(II)/Zn(II) ions for 1 h prior activity assays. The fluorescence signal activated by peptide cleavage was recorded at 440 nm (excitation at 360 nm) for 45 min, by a Varioskan (Thermo^©) plate reader in 384 multiwell plates. Three replicates were performed for each data point. Data were reported as normalized percentages of residual activity. The potency (IC50) was calculated from the value of the dose response plot corresponding at a fractional activity of 50%. The IC50 values were determined using a non linear fit of experimental data in according to equation: […]
(§3) The midpoint of this function occurs at a fractional activity value of 50%, corresponding to half inhibition of the target enzyme. The IC50 values and their standard errors were deduced from the fitting. To evaluate if copper is a reversible PI, we measured the ChT-L activity of hCP incubated with Cu(II) (2.20 μM) before and after addition of an equimolar amount of EDTA.

[2] = target: T2, human 20S proteasome (hCP), ChT-L activity; assay: ChT-L peptidase activity of isolated hCP (Suc-LLVY-AMC fluorogenic substrate); format: biochemical
T2 construct: purchased Boston Biochem (Cambridge, MA, USA)
Text: as §1, §2, §3

[3] = system: T3, Wild type 20S proteasome (yCP); assay: ChT-L peptidase activity of wild type yeast 20S proteasome (yCP); format: biochemical, Saccharomices Cerevisiae; conditions: one-way ANOVA, p < 0.05
T3 construct: made in house; host or cells: Saccharomyces cerevisiae
Text: Figure 4 (A) Copper(II)-inhibited ChT-L peptidase activity of yCP (red bars) and the α3ΔN mutant (green bars); (pdb code: 4Q1S). […] (B) Top views of the α-rings of yCP. C); Magnified picture of the yCP gate. The first nine residues of the α3 subunit, which are not present in the α3ΔN mutant, are represented in magenta. Two histidines (α6-H14 and α1-H6) located at the entrance of the gate and near the N-terminal segment of the α3 subunit are evidenced in red. A third His residue (α3-H30) is far away from the gate and is not shown.
as §1

[4] = system: T4, human 20S proteasome (hCP); assay: Native gel electrophoresis of purified hCP (assembly); conditions: 1 h incubation with 1 and 5 μM Cu(II)
T4 construct: purchased Boston Biochem (Cambridge, MA, USA)
Method: Currently, there are only few molecules known to inhibit the ChT-L, C-L, and T-L proteasome activities to the same extent. In principle, these agents are thought to inactivate the CP by upstream events involving protein damage (e.g. oxidation, disassembling of the enzyme into α and β subunits)[29][30] or, as recently reported, to allosteric effects involving proteasome gating. To address these issues, we performed native gel electrophoresis of purified hCP after 1 h incubation with 1 and 5 μM Cu(II) ions (Fig. 1B). […] Thus, we can exclude that Cu(II)-treated hCP could disassemble in α and β subunits. […] To this aim we i) assayed the presence of Cu(I) species in Cu(II)-loaded hCP samples by UV spectroscopy using bathocuproine disulfonic acid sodium salt (BCS) (see Figure S1 of Supporting Information) and ii) monitored the ROS production using fluorescein as a probe whose fluorescence intensity decreases upon reacting with ROS[32]. […]
Proteasome-enriched fractions were subjected to non denaturing native gel electrophoresis, as described elsewhere. […] Peptidolytic activity of proteasome-enriched fractions from cell lysates was evaluated after incubating the gels in a Suc-LLVY-AMC substrate dissolved in 50 mM Tris pH 8.0, 5 mM MgCl2, 1 mM DTT, 1 mM ATP, at 37 °C for 15 min. […] Images of the gels were acquired by Chemidoc (Biorad), and fluorescent bands were quantified by using the Image J software.

[5] = system: T5, 26S/20S proteasome assembly in Hela cells; assay: Non-denaturing gel with in-gel peptidase activity of HeLa lysates (20S/26S ratio); format: cell-based, human; conditions: 24 h
T5 construct: endogenous in cells; host or cells: HeLa cells
Method: Proteasome-enriched fractions were subjected to non denaturing native gel electrophoresis, as described elsewhere. Briefly, 100 μg of fractionated Hela cells lysates, pretreated for 24 h with 0, 20 or 80 μM Cu(II), were run on a 3–12% non-denaturing, gradient polyacrylamide gel (Invitrogen, Carlsbad, CA) according to a protocol reported elsewhere. hCP (2 μM) treated for 2 h with 0 μM, 20 μM and 80 μM of Cu (II) was used as reference control. Peptidolytic activity of proteasome-enriched fractions from cell lysates was evaluated after incubating the gels in a Suc-LLVY-AMC substrate dissolved in 50 mM Tris pH 8.0, 5 mM MgCl2, 1 mM DTT, 1 mM ATP, at 37 °C for 15 min. Proteasome bands were identified by the release of highly fluorescent free AMC which allowed us to identify the proteasome holo and subcomplexes. Images of the gels were acquired by Chemidoc (Biorad), and fluorescent bands were quantified by using the Image J software.

[6] = system: T6, α3ΔN mutant 20S proteasome; assay: ChT-L peptidase activity of α3ΔN open-gate mutant yeast proteasome; format: biochemical, Saccharomices Cerevisiae; conditions: permanently open gate mutant
T6 construct: made in house; host or cells: Saccharomyces cerevisiae (mutant strain)
Text: All the experimental data collected so far reconcile with the hypothesis that Cu(II) ions have a direct influence on the gating mechanisms of the 20S proteasome. To further validate this hypothesis, we assayed the effect of Cu(II) ions on the ChT-L peptidase activity of a mutant proteasome (α3ΔN) where deletion of the first nine N terminal residues of the α3 subunit results in permanently open gate conformation. […] It is worthy to remark here that several histidine residues are located at the entrance of the channel and, more specifically in the proximity of the N-terminal tail of the α3 subunit (Fig. 4 panels B and C). It is tempting to speculate that these His residues may play a major role in driving the Copper(II) –mediated gating dynamics.
as §1, with “Wild type 20S proteasome isolated from Saccharomices Cerevisiae (yCP) and a mutant (α3ΔN) where nine residues of the N-terminal tail of the α3 subunit are deleted to provide a permanently open-gate conformations were isolated as described elsewhere.” left out

[Cl][Cu][Cl] [Cu(II), CuCl2]
IC50 ([1]; hCP 2 nM, 1 h preincubation with ions, Tris 25 mM pH 7.6, 37 °C, no SDS, read-out: IC50 T-L): 1.45 µM | IC50 ([1]; in the presence of 0.018% SDS, other conditions unmodified, read-out: IC50 T-L, Cu(II) + SDS): 1.35 µM | IC50 ([2]; hCP 2 nM, 1 h preincubation with ions, Tris 25 mM pH 7.6, 37 °C, no SDS, read-out: IC50 ChT-L): 1.19 µM | Recovery of ChT-L activity after EDTA addition (reversibility) ([2]; hCP incubated with Cu(II) 2.20 μM, equimolar EDTA added): did not evidence any recovery of the ChT-L activity | IC50 ([2]; in the presence of 0.018% SDS, other conditions unmodified, read-out: IC50 ChT-L, Cu(II) + SDS): 0.73 µM | ChT-L activity of yCP at 5 μM versus 3 μM [3]: significantly lower | hCP assembly by native gel [4]: only a single band is present at 700 kDa | Intensity of CP, CP-RP and CP-RP2 bands ([5]; 20 μM Cu(II)): does not vary with respect to control | Intensity of CP, CP-RP1 and CP-RP2 bands ([5]; 80 μM Cu(II)): the amount of CP increases | Effect on ChT-L peptidase activity of α3ΔN mutant [6]: did not affect proteasome activity
